Measurements as given in US20010049373A1, “Materials and methods for killing nematodes and nematode eggs” (priority 2000, published 2001).
Values joined by “and” are separate entries in the source; they are usually repeats but may differ in a detail not shown here. Equal values may be shown once.

What was measured:
[1] = tested on: gastrointestinal nematodes (trichostrongyle, Strongyloides, Trichuris, Nematodirus eggs); assay: Sheep Test I: fecal egg per gram (EPG) counts; format: in vivo; details: for % Change, Strongyles EPG-5 day vs EPG-pre, Total/Mean / Strongyles EPG-5 day (22-Jan), Total/Mean / % Change, Strongyles EPG-7 day vs EPG-pre, Total/Mean / Strongyles EPG-7 day (24-Jan), Total/Mean: group mean; for % Change, Strongyles EPG-5 day vs EPG-pre, Total/Mean / Strongyles EPG-5 day (22-Jan), Total/Mean / Strongyles EPG-5 day (22-Jan): 5 days after treatment; for % Change, Strongyles EPG-7 day vs EPG-pre, Total/Mean / Strongyles EPG-7 day (24-Jan), Total/Mean / % Change, Strongyles EPG-7 day vs EPG-pre / Strongyles EPG-7 day (24-Jan): 7 days after treatment; for Strongyles EPG-5 day (22-Jan) / % Change, Strongyles EPG-7 day vs EPG-pre / Strongyles EPG-7 day (24-Jan): individual sheep
Experimental: (§1) Sheep naturally infected with a variety of gastrointestinal nematodes are purchased from local sources and are transported to the test site. The animals are housed in a manner to preclude further infection by nematode larvae. The animals are evaluated for the presence of adequate nematode burdens by performing a standard fecal egg per gram (EPG) count. Eggs are differentiated into the following groups: trichostrongyle (strongyle), Strongyloides, Trichuris, or Nematodinis. Only sheep judged by the study parasitologist to have adequate nematode infections are retained as test subjects.
The sheep are fed good quality hay (no concentrated rations) and water ad libitum. Following a five-day acclimation period, the sheep are randomly assigned by EPG count into treatment groups which include non-treated Negative control (placebo); Positive Control (commercially available ivermectin for sheep): and various anthelmintic compounds of the present invention (test compound) dissolved in DMSO. The first replicate of 10 animals is randomly assigned to groups 1-10; the second replicate of 10 animals is randomly assigned to groups 1-10; and the third replicate of 10 animals is randomly assigned to groups 1-10. Thus 10 groups of 3 animals each is created.
The randomization is performed on fecal samples collected 24-48 hours prior to scheduled treatment. The EPG counts are performed according to Zimmerman Research SOP # NMEPG.99.01
On treatment day, the animals are weighed and divided into groups with three animals per group as follows:
(§2) The placebo (DMSO), the commercially available drug, and the test anthelmintic compounds are administered in a 3 ml volume by subcutaneous injection using a sterile syringe fitted with a proper needle. The animal is adequately immobilized for injection of the placebo, commercially available drug, or test anthelmintic compound.
Following treatment, the animals are observed at hourly intervals for the first 8 hours, then daily until necropsy. They will continue to be housed in a manner to prevent further nematode infections. Fecal samples are taken for EPG counts on the 5th day and 7th day after treatment.
Seven days following treatment the sheep are humanely slaughtered in accordance with the Guide for the Care and Use of Laboratory Animals (DHEW Publication No. 86-23). Necropsy procedures are according to Zimmerman Research SOP # NCRGIH.99.01, Necropsy for Helminth Recovery, specifically for gastrointestinal nematodes. Fecal samples are taken for EPG counts during the sample collection process on this day. All animals are necropsied, but only the animals from the experimental treatment groups that have a significant egg count reduction on day 5 or day 7 will have intestinal material collected for nematode recovery and identification.

[2] = tested on: gastrointestinal nematodes (trichostrongyle, Strongyloides, Trichuris, Nematodirus eggs); assay: Sheep Test II: fecal egg per gram (EPG) counts; format: in vivo; details: for % Change, Strongyles EPG-5 day vs EPG-pre, Total/Mean / Strongyles EPG-5 day (22-May), Total/Mean / % Change, Strongyles EPG-7 day vs EPG-pre, Total/Mean / Strongyles EPG-7 day (24-May), Total/Mean: group mean; for % Change, Strongyles EPG-5 day vs EPG-pre, Total/Mean / Strongyles EPG-5 day (22-May), Total/Mean / Strongyles EPG-5 day (22-May): 5 days after treatment; for % Change, Strongyles EPG-7 day vs EPG-pre, Total/Mean / Strongyles EPG-7 day (24-May), Total/Mean / % Change, Strongyles EPG-7 day vs EPG-pre / Strongyles EPG-7 day (24-May): 7 days after treatment; for Strongyles EPG-5 day (22-May) / % Change, Strongyles EPG-7 day vs EPG-pre / Strongyles EPG-7 day (24-May): individual sheep
Experimental: as §1, with “Nematodiris.” for “Nematodinis.”
The sheep are fed good quality hay (no concentrated rations) and water ad libitum. Following a five day acclimation period, the sheep are randomly assigned by EPG count into the following treatment groups: Groups 1-9, various anthelmintic compounds of the present invention (test compound) dissolved in DMSO: Group 10, Positive Control (commercially available ivermectin for sheep); Group 11, non-treated Negative control (DMSO only). The first replicate of 1 I animals is randomly assigned to groups 1-1; the second replicate of 11 animals is randomly assigned to groups 1-11; and the third replicate of 11 animals is randomly assigned to groups 1-1. Thus 11 groups of 3 animals each are created.
The randomization is performed on fecal samples collected 24-48 hours prior to scheduled treatment. The EPG counts are performed according to Zimmerman Research SOP # NMEPG.99.01.
as §2, with “volume of DMSO” for “volume”, “a sterile” for “a proper”, “needle. The site of injection is clipped and swabbed with alcohol prior to injection.” for “needle.”, “or experimental” for “or test anthelmintic”
Following treatment, the animals are observed at hourly intervals for the first 8 hours, then daily until necropsy. They are housed in a manner to prevent further nematode infections.
On the fifth day following treatment, fecal samples are obtained from each animal, properly labeled and used for EPG counts.
Seven days following treatment, all the sheep are weighed and humanely slaughtered in accordance with the Guide for the Care and Use of Laboratory Animals (DHEW Publication No. 86-23). Necropsy procedures are according to Zimmerman Research SOP # NCRGIH.00.01, Necropsy for Helminth Recovery, specifically for gastrointestinal nematodes. Fecal samples are taken for EPG counts during the sample collection process on this day.

## 22,23-dihydroavermectin B1 [ivermectin]
[1]; Ivermectin .2 mg/kg
  % Change, Strongyles EPG-5 day vs EPG-pre, Total/Mean: 99.62%
  Strongyles EPG-5 day (22-Jan), Total/Mean: 3.33 EPG
  % Change, Strongyles EPG-7 day vs EPG-pre, Total/Mean: 100.00%
  Strongyles EPG-7 day (24-Jan), Total/Mean: 0.00 EPG
  Strongyles EPG-5 day (22-Jan): 10 EPG and 0 EPG (2×)
  % Change, Strongyles EPG-7 day vs EPG-pre: 100.00%
  Strongyles EPG-7 day (24-Jan): 0 EPG
[2]; Ivermectin 200 mcg/kg
  % Change, Strongyles EPG-5 day vs EPG-pre, Total/Mean: 100.00%
  Strongyles EPG-5 day (22-May), Total/Mean: 0.00 EPG
  % Change, Strongyles EPG-7 day vs EPG-pre, Total/Mean: 100.00%
  Strongyles EPG-7 day (24-May), Total/Mean: 0.00 EPG
  Strongyles EPG-5 day (22-May): 0 EPG
  % Change, Strongyles EPG-7 day vs EPG-pre: 100.00%
  Strongyles EPG-7 day (24-May): 0 EPG

## CCC1CCCCN1c1cc(Oc2ccc3oc4ccccc4c3c2)ncn1 (stereo not shown) [AKC 109]
[1]; AKC 109 1.4 mg/kg
  % Change, Strongyles EPG-5 day vs EPG-pre, Total/Mean: 76.43%
  Strongyles EPG-5 day (22-Jan), Total/Mean: 206.67 EPG
  % Change, Strongyles EPG-7 day vs EPG-pre, Total/Mean: 85.55%
  Strongyles EPG-7 day (24-Jan), Total/Mean: 126.67 EPG
[1]; AKC 109 1.4 mg/kg, 1.4 mg/kg
  Strongyles EPG-5 day (22-Jan): 30 EPG and 590 EPG and 0 EPG
  % Change, Strongyles EPG-7 day vs EPG-pre: 84.30% and −195.00% and 100.00%
  Strongyles EPG-7 day (24-Jan): 380 EPG and 0 EPG
[2]; AKC 109 .8 mg/kg
  % Change, Strongyles EPG-5 day vs EPG-pre, Total/Mean: 51.49%
  Strongyles EPG-5 day (22-May), Total/Mean: 245.00 EPG
  % Change, Strongyles EPG-7 day vs EPG-pre, Total/Mean: 50.50%
  Strongyles EPG-7 day (24-May), Total/Mean: 250.00 EPG
  Strongyles EPG-5 day (22-May): 360 EPG and 130 EPG
  % Change, Strongyles EPG-7 day vs EPG-pre: 63.93% and 30.00%
  Strongyles EPG-7 day (24-May): 220 EPG and 280 EPG
